Data: PubChem BioAssay (NCI)
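At the GI50, growth is halved. TGI marks complete inhibition of growth.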

Key:
Test in all cases: NCI anticancer screen, dose series, 384-well format
SNB-75 CNS = test system: SNB-75 CNS
CCRF-CEM leukemia = test system: CCRF-CEM leukemia
KM12 colon = test system: KM12 colon
RPMI-8226 leukemia = test system: RPMI-8226 leukemia
ACHN renal = test system: ACHN renal
PC-3 prostate = test system: PC-3 prostate
HCT-116 colon = test system: HCT-116 colon
SF-295 CNS = test system: SF-295 CNS
NCI-H322M lung = test system: NCI-H322M lung
NCI-H226 lung = test system: NCI-H226 lung
UACC-257 melanoma = test system: UACC-257 melanoma
UACC-62 melanoma = test system: UACC-62 melanoma
MDA-MB-435 melanoma = test system: MDA-MB-435 melanoma

C=CC(=O)N[C@H]1CCOC[C@H]1Nc1ncc2cc(-c3c(Cl)c(OC)cc(OC)c3Cl)ccc2n1
GI50 (SNB-75 CNS): 6.99 µM | TGI (SNB-75 CNS): 33.5 µM | GI50 (CCRF-CEM leukemia): 9.81 µM | TGI (CCRF-CEM leukemia): 22.2 µM | GI50 (KM12 colon): 19.2 µM | TGI (KM12 colon): 47.7 µM | GI50 (RPMI-8226 leukemia): 4.12 µM | TGI (RPMI-8226 leukemia): 15 µM | GI50 (ACHN renal): 30.6 µM | TGI (ACHN renal): > 100 µM | GI50 (PC-3 prostate): 20.3 µM | TGI (PC-3 prostate): 66.2 µM | GI50 (HCT-116 colon): 15.1 µM | TGI (HCT-116 colon): 33.6 µM | GI50 (SF-295 CNS): 28.1 µM | TGI (SF-295 CNS): > 86.7 µM | GI50 (NCI-H322M lung): 27.7 µM | TGI (NCI-H322M lung): > 100 µM | GI50 (NCI-H226 lung): 4.55 µM | TGI (NCI-H226 lung): 20.8 µM | GI50 (UACC-257 melanoma): 13.9 µM | TGI (UACC-257 melanoma): 38.8 µM | GI50 (UACC-62 melanoma): 10.7 µM | TGI (UACC-62 melanoma): 25.1 µM | GI50 (MDA-MB-435 melanoma): > 64.3 µM | TGI (MDA-MB-435 melanoma): > 100 µM

c1cn2cc(-c3ccc4cn[nH]c4c3)nc(Nc3ccc(N4CCOCC4)cc3)c2n1
GI50 (SNB-75 CNS): 2.15 µM | TGI (SNB-75 CNS): 9.11 µM | GI50 (CCRF-CEM leukemia): > 100 µM | TGI (CCRF-CEM leukemia): > 100 µM | GI50 (KM12 colon): 0.527 µM | TGI (KM12 colon): 25 µM | GI50 (RPMI-8226 leukemia): 16.9 µM | TGI (RPMI-8226 leukemia): > 58.6 µM | GI50 (ACHN renal): 10.7 µM | TGI (ACHN renal): 25.1 µM | GI50 (PC-3 prostate): 14.1 µM | TGI (PC-3 prostate): 28.7 µM | GI50 (HCT-116 colon): 15 µM | TGI (HCT-116 colon): 34.3 µM | GI50 (SF-295 CNS): 13.7 µM | TGI (SF-295 CNS): 27.4 µM | GI50 (NCI-H322M lung): 12.3 µM | TGI (NCI-H322M lung): 37.5 µM | GI50 (NCI-H226 lung): 9.38 µM | TGI (NCI-H226 lung): 23 µM | GI50 (UACC-257 melanoma): 11.5 µM | TGI (UACC-257 melanoma): 27.6 µM | GI50 (UACC-62 melanoma): 7.97 µM | TGI (UACC-62 melanoma): 20.9 µM | GI50 (MDA-MB-435 melanoma): 22.6 µM | TGI (MDA-MB-435 melanoma): > 75.5 µM
